The source made the active and inactive calls. The calls are words filed in the database; no cut-off is given here.
Experiments:
HCT-116 [1] = assay: Induction of apoptosis in human HCT116 cells assessed as DNA content at sub-G1 phase at 20 uM after 24 hrs by annexin V-FITC/propidium iodide staining-based flow cytometric analysis (reference value: 92%); format: functional
HCT-116 [2] = assay: Induction of apoptosis in human HCT116 cells assessed as dead cells at 20 uM after 24 hrs by annexin V-FITC/propidium iodide staining-based flow cytometric analysis (reference value: 2%); format: functional
[3] = biological target: Tyrosine-protein kinase Lck (Homo sapiens) (UniProt P06239); assay: Inhibition of human LCK
Chain of Tyrosine-protein kinase Lck (Homo sapiens) (P06239 2-509 limits assumed): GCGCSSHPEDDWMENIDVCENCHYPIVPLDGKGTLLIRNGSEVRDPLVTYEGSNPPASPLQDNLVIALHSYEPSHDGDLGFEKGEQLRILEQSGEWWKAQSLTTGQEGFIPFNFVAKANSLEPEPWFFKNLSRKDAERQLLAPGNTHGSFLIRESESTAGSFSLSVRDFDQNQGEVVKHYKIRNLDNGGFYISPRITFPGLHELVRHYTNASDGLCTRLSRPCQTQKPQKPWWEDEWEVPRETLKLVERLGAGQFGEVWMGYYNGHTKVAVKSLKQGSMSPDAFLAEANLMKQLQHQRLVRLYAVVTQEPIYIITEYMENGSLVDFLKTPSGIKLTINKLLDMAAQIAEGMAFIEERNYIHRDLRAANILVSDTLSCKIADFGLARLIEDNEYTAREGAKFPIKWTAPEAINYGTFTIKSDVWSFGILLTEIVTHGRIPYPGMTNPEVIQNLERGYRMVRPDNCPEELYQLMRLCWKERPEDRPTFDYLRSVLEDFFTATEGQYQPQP

[4] = biological target: T1, Interleukin-1 receptor-associated kinase 4 (Homo sapiens) (UniProt Q9NWZ3); assay: Inhibition of human IRAK4
T1 sequence (whole entry): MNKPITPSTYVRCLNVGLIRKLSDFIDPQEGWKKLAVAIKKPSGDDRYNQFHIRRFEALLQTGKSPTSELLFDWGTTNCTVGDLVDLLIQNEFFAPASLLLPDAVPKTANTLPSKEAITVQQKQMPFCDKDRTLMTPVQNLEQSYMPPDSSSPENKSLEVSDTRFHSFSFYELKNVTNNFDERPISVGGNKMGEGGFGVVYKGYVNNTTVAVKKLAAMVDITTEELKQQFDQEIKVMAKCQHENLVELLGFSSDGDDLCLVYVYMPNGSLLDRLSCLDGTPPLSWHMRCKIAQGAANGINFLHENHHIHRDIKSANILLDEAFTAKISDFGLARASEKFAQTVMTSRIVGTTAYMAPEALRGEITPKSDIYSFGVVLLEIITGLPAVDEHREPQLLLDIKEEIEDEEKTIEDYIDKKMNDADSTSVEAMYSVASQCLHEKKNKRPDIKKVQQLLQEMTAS

[5] = biological target: T2, Discoidin domain-containing receptor 2 (Homo sapiens) (UniProt Q16832); assay: Inhibition of human DDR2
T2 sequence (whole entry): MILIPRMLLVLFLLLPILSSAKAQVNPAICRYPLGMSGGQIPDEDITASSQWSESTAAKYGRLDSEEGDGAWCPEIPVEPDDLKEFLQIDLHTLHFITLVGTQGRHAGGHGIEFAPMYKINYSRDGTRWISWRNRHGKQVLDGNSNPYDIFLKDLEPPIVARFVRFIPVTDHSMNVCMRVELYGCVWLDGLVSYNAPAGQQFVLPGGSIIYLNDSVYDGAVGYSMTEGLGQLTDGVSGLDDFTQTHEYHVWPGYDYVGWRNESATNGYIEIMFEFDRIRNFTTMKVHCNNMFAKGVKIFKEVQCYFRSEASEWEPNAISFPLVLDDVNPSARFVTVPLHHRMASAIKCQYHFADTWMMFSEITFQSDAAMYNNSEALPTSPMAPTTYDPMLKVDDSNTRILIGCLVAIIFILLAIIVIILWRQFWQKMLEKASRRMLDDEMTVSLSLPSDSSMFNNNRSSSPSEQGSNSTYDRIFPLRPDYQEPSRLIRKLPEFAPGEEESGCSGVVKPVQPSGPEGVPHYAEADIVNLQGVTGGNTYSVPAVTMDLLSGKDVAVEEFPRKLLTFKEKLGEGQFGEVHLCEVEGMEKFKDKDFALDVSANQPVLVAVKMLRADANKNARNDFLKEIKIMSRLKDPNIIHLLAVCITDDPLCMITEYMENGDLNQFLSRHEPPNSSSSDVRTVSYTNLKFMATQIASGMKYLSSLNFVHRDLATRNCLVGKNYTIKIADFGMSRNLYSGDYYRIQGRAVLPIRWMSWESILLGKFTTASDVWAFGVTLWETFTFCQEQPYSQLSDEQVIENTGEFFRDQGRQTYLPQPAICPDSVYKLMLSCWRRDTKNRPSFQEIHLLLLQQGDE

[6] = biological target: T3, Serine/threonine-protein kinase Chk1 (Homo sapiens) (UniProt O14757); assay: Inhibition of human CHK1
T3 sequence (whole entry): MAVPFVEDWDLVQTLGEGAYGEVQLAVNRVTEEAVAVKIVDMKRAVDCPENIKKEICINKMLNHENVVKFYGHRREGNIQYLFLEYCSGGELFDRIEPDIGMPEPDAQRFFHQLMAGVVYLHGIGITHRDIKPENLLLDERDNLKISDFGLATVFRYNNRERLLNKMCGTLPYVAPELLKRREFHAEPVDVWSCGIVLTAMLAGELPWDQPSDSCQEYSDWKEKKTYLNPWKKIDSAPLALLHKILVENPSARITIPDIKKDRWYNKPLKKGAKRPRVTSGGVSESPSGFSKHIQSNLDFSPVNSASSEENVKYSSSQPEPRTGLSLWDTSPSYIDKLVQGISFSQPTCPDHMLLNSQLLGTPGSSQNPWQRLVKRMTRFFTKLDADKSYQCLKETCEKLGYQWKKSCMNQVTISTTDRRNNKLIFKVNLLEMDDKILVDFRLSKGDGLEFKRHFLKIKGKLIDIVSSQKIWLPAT

HCT-116 [7] = assay: Induction of apoptosis in human HCT116 cells assessed as caspase-7 cleavage at 20 uM by Western blot analysis; format: functional, cell-based; conditions: TDE = time-dependent effect
HCT-116 [8] = assay: Cell cycle arrest in human HCT116 cells assessed as accumulation at sub-G1 phase at 20 uM by propidium iodide staining-based flow cytometric analysis; format: functional; conditions: TDE = time-dependent effect
HCT-116 [9] = assay: Cell cycle arrest in human HCT116 cells assessed as accumulation at S phase at 20 uM after 24 hrs by propidium iodide staining-based flow cytometric analysis (reference value: 2.9%); format: functional
HCT-116 [10] = assay: Cell cycle arrest in human HCT116 cells assessed as accumulation at G1 phase at 20 uM after 24 hrs by propidium iodide staining-based flow cytometric analysis (reference value: 2.9%); format: functional
HCT-116 [11] = assay: Cell cycle arrest in human HCT116 cells assessed as accumulation at S phase at 20 uM after 12 hrs by propidium iodide staining-based flow cytometric analysis (reference value: 26.9%); format: functional
HCT-116 [12] = assay: Cell cycle arrest in human HCT116 cells assessed as accumulation at sub-G1 phase at 20 uM after 12 hrs by propidium iodide staining-based flow cytometric analysis (reference value: 2.9%); format: functional
HCT-116 [13] = assay: Cytotoxicity against human HCT116 cells assessed as cell survival at 5 to 40 uM after 7 days by crystal violet staining assay; format: functional, cell-based; conditions: HCT-116, 168 h
[14] = biological target: Epidermal growth factor receptor (Homo sapiens) (UniProt P00533); assay: Inhibition of human EGFR
Chain of Epidermal growth factor receptor (Homo sapiens) (P00533 whole entry): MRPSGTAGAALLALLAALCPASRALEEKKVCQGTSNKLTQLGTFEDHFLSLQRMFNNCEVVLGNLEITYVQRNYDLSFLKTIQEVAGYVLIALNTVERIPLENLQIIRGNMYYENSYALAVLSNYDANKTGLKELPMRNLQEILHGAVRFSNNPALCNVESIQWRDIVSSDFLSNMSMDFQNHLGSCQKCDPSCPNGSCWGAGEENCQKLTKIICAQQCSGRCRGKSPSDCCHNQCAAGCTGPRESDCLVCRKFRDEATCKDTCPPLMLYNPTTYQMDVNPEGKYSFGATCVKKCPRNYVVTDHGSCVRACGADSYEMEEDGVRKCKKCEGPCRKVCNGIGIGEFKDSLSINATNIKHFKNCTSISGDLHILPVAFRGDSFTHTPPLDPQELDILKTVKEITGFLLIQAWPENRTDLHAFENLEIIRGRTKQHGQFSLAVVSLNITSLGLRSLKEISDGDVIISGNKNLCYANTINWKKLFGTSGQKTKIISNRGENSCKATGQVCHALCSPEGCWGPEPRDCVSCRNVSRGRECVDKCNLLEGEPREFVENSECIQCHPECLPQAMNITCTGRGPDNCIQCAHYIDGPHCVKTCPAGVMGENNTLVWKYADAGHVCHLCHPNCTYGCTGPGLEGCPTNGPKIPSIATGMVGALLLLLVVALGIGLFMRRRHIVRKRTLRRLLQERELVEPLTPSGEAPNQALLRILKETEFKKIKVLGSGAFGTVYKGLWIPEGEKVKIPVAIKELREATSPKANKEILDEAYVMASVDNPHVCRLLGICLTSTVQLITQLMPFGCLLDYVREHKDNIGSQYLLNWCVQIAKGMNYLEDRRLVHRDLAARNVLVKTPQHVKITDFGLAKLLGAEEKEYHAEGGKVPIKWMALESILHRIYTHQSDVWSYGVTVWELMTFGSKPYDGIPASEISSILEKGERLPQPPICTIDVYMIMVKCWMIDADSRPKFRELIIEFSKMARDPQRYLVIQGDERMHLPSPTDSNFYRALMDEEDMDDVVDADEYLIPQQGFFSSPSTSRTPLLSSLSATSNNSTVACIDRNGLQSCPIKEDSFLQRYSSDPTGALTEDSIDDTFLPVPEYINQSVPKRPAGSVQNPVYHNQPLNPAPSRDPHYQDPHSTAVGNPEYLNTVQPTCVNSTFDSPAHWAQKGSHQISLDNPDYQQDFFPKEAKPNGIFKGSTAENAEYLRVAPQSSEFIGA

COc1ccc2c(c1)C=C(C(=O)/C=C/c1c(OC)cc(OC)cc1OC)CO2
Activity (HCT-116 [1]): 1% | Activity (HCT-116 [2]): 0% | inhibition [3]: inactive | inhibition [4]: inactive | inhibition [5]: inactive | inhibition [6]: inactive | Activity (HCT-116 [7]): tde | Activity (HCT-116 [8]): tde | Activity (HCT-116 [9]): 13.6% | Activity (HCT-116 [10]): 23.1% | Activity (HCT-116 [11]): 19.6% | Activity (HCT-116 [12]): 15.1% | IC50 (HCT-116 [13]): 93 nM | inhibition [14]: inactive
